Reference: patent US20200256860A1, “PRINTABLE HYDROGELS FOR BIOMOLECULE IMMOBILIZATION AND STABILIZATION” (priority 2019, published 2020)

How the values were obtained:
[1] = Aggregate size and polydispersity by dynamic light scattering; type: physicochemical; details: 100 μM solutions, DLS
Experimental: Following, to assess the capacity of the printed hydrogels to differentiate between specific and non-specific inhibition, the confirmed promiscuous inhibitors rottlerin and BIS IX (both kinase inhibitors) and tetraiodophenolphthalein (TIPT, another established aggregate forming compound) were tested against TEM-1 β-lactamase (an isoform of β-lactamase) both in solution (modeling a conventional microplate assay) and using a printed hydrogel array. […] In this way, the size selectivity of the printed hydrogel layer excludes the promiscuous inhibitors from accessing the enzyme encapsulated in the hydrogel and thus avoids the false positive hits observed in solution assays. […] Intensity distributions are measured using dynamic light scattering (normalized to maximum intensity).

TEM-1 β-lactamase [2] = biological target: T1, TEM-1 β-lactamase (Escherichia coli, UniProt P62593); type: biochemical; details: promiscuous aggregating inhibitors
T1 sequence (P62593 24-286 limits assumed): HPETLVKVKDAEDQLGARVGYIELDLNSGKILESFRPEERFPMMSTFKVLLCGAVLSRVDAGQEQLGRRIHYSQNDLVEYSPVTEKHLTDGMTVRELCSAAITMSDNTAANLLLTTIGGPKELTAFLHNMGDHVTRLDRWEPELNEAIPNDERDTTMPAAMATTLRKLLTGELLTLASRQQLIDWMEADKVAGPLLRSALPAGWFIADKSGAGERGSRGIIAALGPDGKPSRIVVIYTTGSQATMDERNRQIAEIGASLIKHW

TEM-1 β-lactamase [3] = biological target: T1, TEM-1 β-lactamase; type: biochemical; details: promiscuous aggregating inhibitors, printed hydrogel array, starting concentration 100 μM
Experimental: Images were taken with a Canon DSLR camera (operated in manual focus mode without flash) after 25 min. […] Extracted images were inverted and converted to 8 bit grayscale images. […] Calculation of IC50 values was carried out in OriginPro by plotting the calculated percentage inhibition against the added inhibitor concentration.
Intensity distributions are measured using dynamic light scattering (normalized to maximum intensity).

proteinase K = proteinase K (Parengyodontium album, UniProt P06873); assay: Protease protection studies; type: physicochemical; details: 2 hours
Chain of proteinase K (P06873 106-384, species assumed): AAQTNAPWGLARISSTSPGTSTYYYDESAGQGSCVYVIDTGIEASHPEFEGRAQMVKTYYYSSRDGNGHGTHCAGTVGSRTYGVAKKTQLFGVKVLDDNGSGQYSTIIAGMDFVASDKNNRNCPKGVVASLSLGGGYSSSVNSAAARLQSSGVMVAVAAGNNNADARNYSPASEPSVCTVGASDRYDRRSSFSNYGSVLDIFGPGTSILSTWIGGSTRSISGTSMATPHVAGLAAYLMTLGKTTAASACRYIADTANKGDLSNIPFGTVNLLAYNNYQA
Experimental: 10 μL of a 2 mg/mL proteinase K solution (prepared in 10 mM PBS and 1 mM CaCl2) was pipetted onto the printed enzyme samples both with and without hydrogel encapsulation. The samples were incubated in a closed container for 2 hours at room temperature, after which substrate solutions were pipetted onto the treated samples at the volumes listed in Table 1. Image acquisition and analysis was performed as described for the entrapment studies. The intensity of each sample was measured and presented as a ratio of the corresponding control image (untreated with protease).

[4] = Long-term stability studies (storage at room temperature); type: physicochemical; details: hydrogel-entrapped enzyme, at least three months
Experimental: Printed enzyme samples were stored in a closed, dark container at room temperature for time periods ranging from 7 days up to 3 months. Image acquisition and analysis was performed as described previously for the entrapment and proteinase K degradation studies. The intensity of each sample was measured and presented as a ratio of the corresponding control image (freshly printed).

## Cn1cc(C2=C(c3cn(CCCSC(=N)N)c4ccccc34)C(=O)NC2=O)c2ccccc21 [BIS IX]
[1]
  Aggregate size: 365 ± 9 nm
  Polydispersity: 0.36 ± 0.02
TEM-1 β-lactamase [2]
  Inhibition of β-lactamase in the solution-based assay: inhibited β-lactamase
TEM-1 β-lactamase [3]
  Inhibition of β-lactamase in the hydrogel-based assay: no specific inhibition

## CC(=O)c1c(O)c(C)c(O)c(Cc2c(O)c3c(c(C(=O)/C=C/c4ccccc4)c2O)OC(C)(C)C=C3)c1O [Rottlerin, rottlerin]
[1]
  Aggregate size: 188 ± 1 nm
  Polydispersity: 0.24 ± 0.01
TEM-1 β-lactamase [2]
  Inhibition of β-lactamase in the solution-based assay: inhibited β-lactamase
TEM-1 β-lactamase [3]
  Inhibition of β-lactamase in the hydrogel-based assay: no specific inhibition

## alkaline phosphatase
Proteinase K; enzyme printed directly on nitrocellulose without hydrogel (printed alone)
  Activity retained after proteinase K: ~40%
Proteinase K; enzyme printed with POH in the absence of gel formation
  Activity retained after proteinase K: > 80%
[4]
  Activity retained after storage: ~100%
